Data taken from US9889122B2, “Positive allosteric modulators of nicotinic acetylcholine receptor” (H. Lundbeck A/S, priority 2011, dated 2018).

Target: T1, human α7 receptor (Homo sapiens, UniProt P36544)
T1 construct: host or cells: rat GH4C1 cell line
T1 sequence (P36544 23-502): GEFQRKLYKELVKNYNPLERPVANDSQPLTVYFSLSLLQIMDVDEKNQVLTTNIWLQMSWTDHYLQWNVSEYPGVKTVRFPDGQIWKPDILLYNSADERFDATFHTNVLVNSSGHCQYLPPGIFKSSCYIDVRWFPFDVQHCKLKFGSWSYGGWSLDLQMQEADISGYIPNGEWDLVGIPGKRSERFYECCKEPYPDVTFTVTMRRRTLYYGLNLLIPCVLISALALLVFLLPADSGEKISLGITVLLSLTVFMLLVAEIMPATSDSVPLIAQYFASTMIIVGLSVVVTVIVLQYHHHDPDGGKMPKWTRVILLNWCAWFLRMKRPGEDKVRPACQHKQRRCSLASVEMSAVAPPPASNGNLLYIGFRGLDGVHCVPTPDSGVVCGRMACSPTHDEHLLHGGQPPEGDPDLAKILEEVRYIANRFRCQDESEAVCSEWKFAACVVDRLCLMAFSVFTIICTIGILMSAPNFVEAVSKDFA
Test: α7 NNR flux assay (FDSS Ca assay, Calcium-4 dye, positive allosteric modulation of acetylcholine response)
Type: cell-based
Details: human α7 receptor stably expressed in rat GH4C1 cell line; acetylcholine 20 μM (~EC100); % modulation relative to reference PNU-120596 set to 100%
Protocol: The nicotinic acetylcholine receptor α7 is a calcium-permeable ion channel, whose activity can be measured by over expression in mammalian cells or oocytes in this version of the assay, the human α7 receptor is stably expressed in the rat GH4C1 cell line. The assay was used to identify positive allosteric modulators (PAMs) of the α7 receptor. Activation of the channel was measured by loading cells with the calcium-sensitive fluorescent dye Calcium-4 (Assay kit from Molecular Devices), and then measuring real-time changes in fluorescence upon treatment with test compounds.
The cell line ChanClone GH4C1-nAChRalpha7 from Genionics was seeded from frozen stock in 384-well plates in culture media 2-3 days before experiment to form an approximately 80% confluent layer on the day of experiment.
Two or three days before the experiment the cells were seeded in 384 well plates from Greiner bio-one (781946, CELLCOAT, Poly-D-Lysine, black, μClear).
The cells were seeded in 384 well plates with 30 μL/well (30000 cells/well) while stirring the cell suspension or otherwise preventing the cells from precipitating.
The loading buffer was 5% v/v Calcium-4 Kit and 2.5 mM Probenecid in assay buffer.
Culture media were removed from the cell plates and 20 μL loading buffer was added in each well. The cell plates were placed in trays and incubated 90 minutes in the incubator (37° C.). Thereafter the plates were incubated 30 minutes at room temperature, still protected from light.
The assay buffer was HBSS with 20 mM HEPES, pH 7.4 and 3 mM CaCl2.
200 nL 10 mM compound solution in DMSO was diluted in 50 μL assay buffer. The final test concentrations in the cell plates were 20-10-5-2.5-1:25-0.625-0.312-0.156-0.078-0.039 μM. Assay buffer and 3 μM PNU-120596 were used for control.
The agonist acetylcholine was added to a final concentration of 20 μM (˜EC100).
In the FDSS7000 the Ex480-Em540 was measured with 1 second intervals. The baseline was made of 5 frames before addition of test compounds, and 95 frames more were made before addition of acetylcholine. The measurement stopped 30 frames after the 2nd addition. Raw data for each well were collected as “the maximum fluorescence count” in the interval 100-131 seconds and as “the average fluorescence count” in the interval 96-100 seconds. The positive allosteric modulation in the 2nd addition was the enhancement of agonist response with test compound compared to agonist alone.
Results were calculated as % modulation of test compound compared to the reference PNU-120596 set to 100%.
With `C[C@H](NC(=O)[C@H]1C[C@@H]1c1ccccc1)c1ccc(OC2COC2)nc1` [Compound 19, (1S,2S)-2-Phenyl-cyclopropanecarboxylic acid {(S)-1-[6-(oxetan-3-yloxy)-pyridin-3-yl]-ethyl}-amide] the EC50 was 2400 nM. Work on `C[C@H](NC(=O)[C@H]1C[C@@H]1c1ccccc1)c1ccc(OCC#N)nc1` [Compound 20, (1S,2S)-2-Phenyl-cyclopropane carboxylic acid [(S)-1-(6-cyanomethoxy-pyridin-3-yl)-ethyl]-amide] yielded an EC50 of 2000 nM. `[2H]C([2H])([2H])COc1ccc([C@H](CO)NC(=O)[C@H]2C[C@@H]2c2ccccc2)cn1` [Compound 31, (1S,2S)-2-Phenyl-cyclopropanecarboxylic acid [(R)-1-(6-(2,2,2-d3)-ethoxy-pyridin-3-yl)-2-hydroxy-ethyl]-amide] gave an EC50 of 1700 nM. In the case of `[2H]C([2H])(C)Oc1ccc([C@H](CO)NC(=O)[C@H]2C[C@@H]2c2cccc(F)c2)cn1` [Compound 32, (1S,2S)-2-(3-Fluoro-phenyl)-cyclopropanecarboxylic acid [(R)-1-(6-(1,1-d2)-ethoxy-pyridin-3-yl)-2-hydroxy-ethyl]-amide], the EC50 is reported as 530 nM. In the case of `CCOc1ccc([C@H](CO)NC(=O)[C@H]2C[C@@H]2c2ccccc2)cn1` [Compound 33, (1S,2S)-2-Phenyl-cyclopropanecarboxylic acid [(R)-1-(6-ethoxy-pyridin-3-yl)-2-hydroxy-ethyl]-amide], the EC50 is reported as 1000 nM. Work on `[2H]C([2H])([2H])C([2H])([2H])Oc1ccc([C@H](CO)NC(=O)[C@H]2C[C@@H]2c2ccc(F)cc2)cn1` [Compound 34, (1S,2S)-2-(4-Fluoro-phenyl)-cyclopropanecarboxylic acid [(R)-1-(6-(1,1,2,2,2-d5)-ethoxy-pyridin-3-yl)-2-hydroxy-ethyl]-amide] yielded an EC50 of 700 nM. Work on `[2H]C([2H])([2H])COc1ccc([C@H](CO)NC(=O)[C@H]2C[C@@H]2c2ccc(F)cc2)cn1` [Compound 35, (1S,2S)-2-(4-Fluoro-phenyl)-cyclopropanecarboxylic acid [(R)-1-(6-(2,2,2-d3)-ethoxy-pyridin-3-yl)-2-hydroxy-ethyl]-amide] yielded an EC50 of 710 nM. In the case of `[2H]C([2H])(C)Oc1ccc([C@H](CO)NC(=O)[C@H]2C[C@@H]2c2ccccc2)cn1` [Compound 36, (1S,2S)-2-Phenyl-cyclopropanecarboxylic acid [(R)-1-(6-(1,1-d2)-ethoxy-pyridin-3-yl)-2-hydroxy-ethyl]-amide], the EC50 is reported as 1600 nM. In the case of `[2H]C([2H])(C)Oc1ccc([C@H](CO)NC(=O)[C@H]2C[C@@H]2c2ccc(F)cc2)cn1` [Compound 37, (1S,2S)-2-(4-Fluoro-phenyl)-cyclopropanecarboxylic acid [(R)-1-(6-(1,1-d2)-ethoxy-pyridin-3-yl)-2-hydroxy-ethyl]-amide], the EC50 is reported as 700 nM. Work on `[2H]C([2H])([2H])C([2H])([2H])Oc1ccc([C@H](CO)NC(=O)[C@H]2C[C@@H]2c2ccccc2)cn1` [Compound 38, (1S,2S)-2-Phenyl-cyclopropane carboxylic acid [(R)-1-(6-(1,1,2,2-d5)-ethoxy-pyridin-3-yl)-2-hydroxy-ethyl]-amide] yielded an EC50 of 970 nM. Compound `[2H]C([2H])([2H])COc1ccc([C@H](CO)NC(=O)[C@H]2C[C@@H]2c2cccc(F)c2)cn1` [Compound 39, (1S,2S)-2-(3-Fluoro-phenyl)-cyclopropanecarboxylic acid [(R)-1-(6-(2,2,2-d3)-ethoxy-pyridin-3-yl)-2-hydroxy-ethyl]-amide] has an EC50 of 720 nM. `O=C(N[C@@H](CO)c1ccc(OC2CCC2)nc1)[C@H]1C[C@@H]1c1ccccc1` [Compound 40, (1S,2S)-2-Phenyl-cyclopropanecarboxylic acid [(R)-1-(6-cyclobutoxy-pyridin-3-yl)-2-hydroxy-ethyl]-amide] showed an EC50 of 890 nM. With `O=C(N[C@@H](CO)c1ccc(OC2CCC2)nc1)[C@H]1C[C@@H]1c1cccc(F)c1` [Compound 41, (1S,2S)-2-(3-Fluoro-phenyl)-cyclopropanecarboxylic acid [(R)-1-(6-cyclobutoxy-pyridin-3-yl)-2-hydroxy-ethyl]-amide] the EC50 was 1600 nM. Work on `O=C(N[C@@H](CO)c1ccc(OC2CCC2)nc1)[C@H]1C[C@@H]1c1ccc(F)cc1` [Compound 42, (1S,2S)-2-(4-Fluoro-phenyl)-cyclopropanecarboxylic acid [(R)-1-(6-cyclobutoxy-pyridin-3-yl)-2-hydroxy-ethyl]-amide] yielded an EC50 of 790 nM. With `O=C(N[C@@H](CO)c1ccc(O[C@@H]2CCOC2)nc1)[C@H]1C[C@@H]1c1ccccc1` [Compound 43, (1S,2S)-2-Phenyl-cyclopropanecarboxylic acid ((R)-2-hydroxy-1-{6-[(R)-(tetrahydro-furan-3-yl)oxy]-pyridin-3-yl}-ethyl)-amide] the EC50 was 2900 nM. `O=C(N[C@@H](CO)c1ccc(O[C@H]2CCOC2)nc1)[C@H]1C[C@@H]1c1ccccc1` [Compound 44, (1S,2S)—N-[(1R)-2-hydroxy-1-[6-[(3S)-tetrahydrofuran-3-yl]oxy-3-pyridyl]ethyl]-2-phenyl-cyclopropanecarboxamide] showed an EC50 of 4600 nM. `CCOc1ccc([C@H](COC)NC(=O)[C@H]2C[C@@H]2c2ccccc2)cn1` [Compound 46, (1S,2S)-2-Phenyl-cyclopropanecarboxylic acid [(R)-1-(6-ethoxy-pyridin-3-yl)-2-methoxy-ethyl]-amide] gave an EC50 of 460 nM. In the case of `COC[C@H](NC(=O)[C@H]1C[C@@H]1c1ccccc1)c1ccc(O[C@@H]2CCOC2)nc1` [Compound 47, (1S,2S)—N-[(1R)-2-methoxy-1-[6-[(3R)-tetrahydrofuran-3-yl]oxy-3-pyridyl]-ethyl]-2-phenyl-cyclopropanecarboxamide], the EC50 is reported as 1000 nM. Work on `COC[C@H](NC(=O)[C@H]1C[C@@H]1c1ccccc1)c1ccc(O[C@H]2CCOC2)nc1` [Compound 48, (1S,2S)—N-[(1R)-2-methoxy-1-[6-[(3S)-tetrahydrofuran-3-yl]oxy-3-pyridyl]ethyl]-2-phenyl-cyclopropanecarboxamide] yielded an EC50 of 1700 nM. Work on `COC[C@H](NC(=O)[C@H]1C[C@@H]1c1ccccc1)c1ccc(OC2CCOCC2)nc1` [Compound 49, (1S,2S)-2-Phenyl-cyclopropanecarboxylic acid {(R)-2-methoxy-1-[6-(tetrahydro-pyran-4-yloxy)-pyridin-3-yl]-ethyl}-amide] yielded an EC50 of 1200 nM. For `CCOc1ccc([C@H](CO)NC(=O)[C@H]2C[C@@H]2c2ccccc2)nc1` [Compound 52, (1S,2S)-2-Phenyl-cyclopropanecarboxylic acid [(R)-1-(5-ethoxy-pyridin-2-yl)-2-hydroxy-ethyl]-amide], the EC50 was 2000 nM.

System: not given
Test: not given
Details: not given
Work on `C[C@H](NC(=O)[C@H]1C[C@@H]1c1ccccc1)c1ccc(OC2COC2)nc1` [Compound 19, (1S,2S)-2-Phenyl-cyclopropanecarboxylic acid {(S)-1-[6-(oxetan-3-yloxy)-pyridin-3-yl]-ethyl}-amide] yielded a melting point of 151 to 153 °C. `C[C@H](NC(=O)[C@H]1C[C@@H]1c1ccccc1)c1ccc(OCC#N)nc1` [Compound 20, (1S,2S)-2-Phenyl-cyclopropane carboxylic acid [(S)-1-(6-cyanomethoxy-pyridin-3-yl)-ethyl]-amide] showed a melting point of 163 to 165 °C.
